Measured values as given in US20240109891A1, “NOVEL SUBSTITUTED TRICYCLIC AZA-HETEROCYCLES AS SOS1 INHIBITORS” (Viva Star Biosciences (Suzhou) Co., Ltd., priority 2021, published 2024).

Assays:
[1] = biological target: T1, KRAS-WT and SOS1 proteins (Homo sapiens, UniProt Q07889); test: KRAS-WT/SOS1 binding assay (HTRF); conditions: Tag1-SOS1 / Tag2-KRAS-WT, 10 μM GTP, read-out: Activity Data in Kras: SOS1 Assay, Wild Type
T1 construct: purchased Cisbio 63ADK000CB15PEG
T1 sequence (Q07889 1-1333): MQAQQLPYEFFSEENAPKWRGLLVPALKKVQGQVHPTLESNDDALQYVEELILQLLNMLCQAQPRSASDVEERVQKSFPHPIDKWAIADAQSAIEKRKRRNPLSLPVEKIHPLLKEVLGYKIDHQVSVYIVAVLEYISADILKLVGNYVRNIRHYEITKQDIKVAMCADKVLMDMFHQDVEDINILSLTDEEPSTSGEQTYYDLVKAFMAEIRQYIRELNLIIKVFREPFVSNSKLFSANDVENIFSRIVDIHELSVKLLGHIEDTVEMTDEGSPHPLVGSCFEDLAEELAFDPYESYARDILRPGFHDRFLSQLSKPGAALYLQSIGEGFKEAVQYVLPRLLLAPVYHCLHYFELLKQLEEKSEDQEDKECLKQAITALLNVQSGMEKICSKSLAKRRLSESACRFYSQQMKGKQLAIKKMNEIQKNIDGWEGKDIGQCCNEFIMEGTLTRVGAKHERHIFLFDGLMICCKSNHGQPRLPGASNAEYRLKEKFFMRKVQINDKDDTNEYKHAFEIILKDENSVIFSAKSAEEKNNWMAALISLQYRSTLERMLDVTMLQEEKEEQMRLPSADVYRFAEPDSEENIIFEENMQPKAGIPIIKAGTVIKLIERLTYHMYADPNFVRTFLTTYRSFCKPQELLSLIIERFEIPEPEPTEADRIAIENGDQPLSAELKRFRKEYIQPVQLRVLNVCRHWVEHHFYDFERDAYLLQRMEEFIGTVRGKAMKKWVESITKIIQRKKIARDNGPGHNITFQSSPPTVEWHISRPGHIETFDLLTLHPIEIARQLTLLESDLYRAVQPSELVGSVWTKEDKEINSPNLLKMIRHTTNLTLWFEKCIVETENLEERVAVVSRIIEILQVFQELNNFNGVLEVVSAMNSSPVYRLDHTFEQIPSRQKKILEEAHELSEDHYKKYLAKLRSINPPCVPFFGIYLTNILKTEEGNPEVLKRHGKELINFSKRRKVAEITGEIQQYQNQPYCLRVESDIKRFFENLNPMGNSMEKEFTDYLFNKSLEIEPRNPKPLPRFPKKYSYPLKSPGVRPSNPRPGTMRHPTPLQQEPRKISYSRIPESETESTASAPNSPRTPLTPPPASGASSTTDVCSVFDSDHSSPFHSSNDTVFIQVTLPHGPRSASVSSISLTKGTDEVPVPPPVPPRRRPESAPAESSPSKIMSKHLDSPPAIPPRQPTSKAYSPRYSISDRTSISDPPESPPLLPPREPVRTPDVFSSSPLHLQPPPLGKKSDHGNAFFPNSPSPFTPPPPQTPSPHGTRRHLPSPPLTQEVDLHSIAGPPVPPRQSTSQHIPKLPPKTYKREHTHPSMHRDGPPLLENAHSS
Method: (§1) KRAS-WT (or G12C/G12D/G12V)/SOS1 Binding Assay
(§2) Low IC50 values are indicative of high potency of the SOS1 inhibitor compounds in this assay setting.
(§3) The KRAS-WT (or G12C/G12D/G12V)/SOS1 binding assay is performed using an assay kit (Cisbio, Cat #63ADK000CB15PEG or 63ADK000CB16PEG/63ADK000CB17PEG/63ADK000CB18PEG) according to the procedure recommended by the manufacturer. • 1) Thaw and prepare the working solution of Tag1-SOS1 protein and Tag2-KRAS-WT (or G12C/G12D/G12V) protein with final concentration of 10 μM GTP (Sigma, Cat #V900868). • 2) Thaw and prepare the working solution of anti-Tag1-Tb^3+ anti-Tag2-XL665. • 3) Dispense 2 μL of serially diluted compound, 4 μL of Tag1-SOS1 protein and 4 μL of Tag2-KRAS-WT (or G12C/G12D/G12V) protein with GTP into a ProxiPlate-384 Plus, white 384-shallow well microplate (PerkinElmer, Cat #6008280). • 4) Incubate the plate for 15 minutes at room temperature. • 5) Dispense 10 μL of pre-mixed anti-Tag1-Tb^3+ and anti-Tag2-XL665 into the plate. • 6) Seal the plate and incubate for 2 hours at room temperature. • 7) Remove the plate sealer and read on PHERAstar FS (BMG LABTECH, PHERAstar FS). • 8) Calculate the ratio of the acceptor and donor emission signals for each individual well using the following equation.
(§4) [formula] • 9) IC50 values are fitted and calculated by HTRF signal values and log of compound concentrations to nonlinear regression [Log (inhibitor) vs. Response−Variable Slope (four parameters)] using the GraphPad Prism 8.0.

[2] = biological target: T2, KRAS G12D and SOS1 proteins (Homo sapiens, UniProt Q07889); test: KRAS-G12D/SOS1 binding assay (HTRF); conditions: Tag1-SOS1 / Tag2-KRAS G12D, 10 μM GTP
T2 construct: purchased Cisbio 63ADK000CB17PEG
T2 sequence (Q07889 1-1333): T1 sequence (Q07889 1-1333)
Method: as §1, §2, §3, §4

Cc1nc(N[C@H](C)c2cc(C(C)(C)O)cc(C(F)(F)F)c2)c2cc(-c3ccc(=O)n(C)c3)c3c(cnn3C)c2n1 [Example 26, (R)-5-(4-((1-(3-(2-hydroxypropan-2-yl)-5-(trifluoromethyl)phenyl)ethyl)amino)-2,7-dimethyl-7H-pyrazolo[3,4-h]quinazolin-6-yl)-1-methylpyridin-2(1H)-one]
IC50 [1]: > 5 µM | IC50 [2]: > 5 µM

C[C@@H](Nc1nc2ccnn2c2cc(=O)n(C3(C)CC3)cc12)c1cccc2c1CCC2(F)F [Example 62, (R)-5-((1-(1,1-difluoro-2,3-dihydro-1H-inden-4-yl)ethyl)amino)-7-(1-methylcyclopropyl)pyrazolo[1,5-a]pyrido[3,4-e]pyrimidin-8(7H)-one]
IC50 [1]: < 0.1 µM | IC50 [2]: < 0.1 µM

C[C@@H](Nc1nc(C(F)(F)F)nc2c1cc(-c1ccc(=O)n(C)c1)c1c2cnn1C)c1cccc(C(F)(F)CO)c1 [Example 32, (R)-5-(4-((1-(3-(1,1-difluoro-2-hydroxyethyl)phenyl)ethyl)amino)-7-methyl-2-(trifluoromethyl)-7H-pyrazolo[3,4-h]quinazolin-6-yl)-1-methylpyridin-2(1H)-one]
IC50 [1]: 0.1 to 0.5 µM | IC50 [2]: 0.1 to 0.5 µM

Cc1nc(N[C@H](C)c2cccc3c2CCC3(F)F)c2cc(-c3ccc(=O)n(C)c3)c3c(cnn3C)c2n1 [Example 25, (R)-5-(4-((1-(1,1-difluoro-2,3-dihydro-1H-inden-4-yl)ethyl)amino)-2,7-dimethyl-7H-pyrazolo[3,4-h]quinazolin-6-yl)-1-methylpyridin-2(1H)-one]
IC50 [1]: < 0.1 µM | IC50 [2]: < 0.1 µM

CC(=O)N1CCC(c2cc3c(N[C@H](C)c4cc(C(C)(C)O)cc(C(F)(F)F)c4)nc(C)nc3n3cnnc23)CC1 [Example 13, (R)-1-(4-(4-((1-(3-(2-hydroxypropan-2-yl)-5-(trifluoromethyl)phenyl)ethyl)amino)-2-methyl-[1,2,4]triazolo[4′,3′:1,6]pyrido[2,3-d]pyrimidin-6-yl)piperidin-1-yl)ethan-1-one]
IC50 [1]: > 5 µM | IC50 [2]: > 5 µM

C[C@@H](Nc1nc2ccnn2c2cc(=O)n([C@H]3CCOC3)cc12)c1cc(N)cc(C(F)(F)F)c1 [Example 70, 5-(((R)-1-(3-amino-5-(trifluoromethyl)phenyl)ethyl)amino)-7-((S)-tetrahydrofuran-3-yl)pyrazolo[1,5-a]pyrido[3,4-e]pyrimidin-8(7H)-one]
IC50 [1]: < 0.1 µM | IC50 [2]: < 0.1 µM

Cc1nc(N[C@H](C)c2cccc(C(F)(F)CO)c2)c2cc(OC3CC(F)(F)C3)c3c(cnn3C)c2n1 [Example 39, (R)-2-(3-(1-((6-(3,3-difluorocyclobutoxy)-2,7-dimethyl-7H-pyrazolo[3,4-h]quinazolin-4-yl)amino)ethyl)phenyl)-2,2-difluoroethan-1-ol]
IC50 [1]: 0.1 to 0.5 µM | IC50 [2]: 0.1 to 0.5 µM

COc1cc2c(cc1O[C@H]1CCOC1)c(N[C@H](C)c1cc(N)cc(C(F)(F)F)c1)nc1cncn12 [Example 57, N—((R)-1-(3-amino-5-(trifluoromethyl)phenyl)ethyl)-8-methoxy-7-(((S)-tetrahydrofuran-3-yl)oxy)imidazo[1,5-a]quinazolin-5-amine]
IC50 [1]: 0.1 to 0.5 µM | IC50 [2]: 0.1 to 0.5 µM

C[C@@H](Nc1nc2ccnn2c2cc(=O)n(C3CC(F)(F)C3)cc12)c1cccc(C(F)(F)CO)c1 [Example 66, (R)-5-((1-(3-(1,1-difluoro-2-hydroxyethyl)phenyl)ethyl)amino)-7-(3,3-difluorocyclobutyl)pyrazolo[1,5-a]pyrido[3,4-e]pyrimidin-8(7H)-one]
IC50 [1]: < 0.1 µM | IC50 [2]: < 0.1 µM

Cc1nc(N[C@H](C)c2cccc(C(F)(F)CO)c2)c2cc(C3CCN(C)CC3)c3c(cnn3C)c2n1 [Example 30, (R)-2-(3-(1-((2,7-dimethyl-6-(1-methylpiperidin-4-y1)-7H-pyrazolo[3,4-h]quinazolin-4-yl)amino)ethyl)phenyl)-2,2-difluoroethan-1-ol]
IC50 [1]: < 0.1 µM | IC50 [2]: < 0.1 µM
